Columns and labels:
[1] = tested on: Erisyphe graminis f. sp. tritici; test: In vivo test on Erisyphe graminis f. sp. tritici (powdery mildew of wheat); conditions: dose of 500 g/ha; wheat plants (Audace variety) sprayed 24 hours before contamination; grading 7 to 14 days after contamination vs control plants
Protocol: In Vivo Test on […] Graminis f. Sp. Tritici (Powdery Mildew of Wheat) […] Wheat plants (Audace variety) in starter cups, sown on 50/50 peat soil-pozzulana substrate and grown at 12° C., are treated at the 1-leaf stage (10 cm tall) by spraying with the aqueous suspension described above. Plants, used as controls, are treated with an aqueous solution not containing the active material. After 24 hours, the plants are contaminated by dusting them with […] graminis f. sp. tritici spores, the dusting being carried out using diseased plants. Grading is carried out 7 to 14 days after the contamination, in comparison with the control plants.

Septoria tritici = test: In vivo test on Septoria tritici (septoria disease of wheat); conditions: dose of 500 g/ha; wheat plants (Scipion variety) sprayed 24 hours before contamination; grading 15 to 20 days after contamination vs control plants
Protocol: In Vivo Test on Septoria Tritici (Septoria Disease of Wheat) […] Wheat plants (Scipion variety) in starter cups, sown on a 50/50 peat soil-pozzolana substrate and grown at 12° C., are treated at the 1-leaf stage (10 cm tall) by spraying with the aqueous suspension described above. Plants, used as controls, are treated with an aqueous solution not containing the active material. After 24 hours, the plants are contaminated by spraying them with an aqueous suspension of Septoria tritici spores (500,000 spores per mL). The spores are collected from a 15-day-old culture and are suspended in a nutrient solution composed of: • 1.5 g/L of gelatin • 0.5 g/L of sodium oleate • 24 g/L of PDB The contaminated wheat plants are incubated for 72 hours at about 20° C. and at 100% relative humidity, and then for 15 days at 80% relative humidity. Grading is carried out 15 to 20 days after the contamination, in comparison with the control plants.

## Nc1ccnc(C(=O)Nc2ccc(Oc3ccc(C(F)(F)F)cc3)cc2)c1O [Compound 108, 4-amino-3-hydroxy-N-para-[4-(trifluoromethyl)phenoxy]phenylpicolinamide]
[1]
  good (at least 50%) or total protection: at least 50%
Septoria tritici
  good (at least 50%) protection: at least 50%

Source: patent US8003799B2, “Picolinic acid derivatives and their use as fungicides” (Bayer SAS, priority 2000, dated 2011)
